Assay results taken from PubChem BioAssay (NCI).
Values joined by “and” are separate entries in the source; they are usually repeats but may differ in a detail not shown here. Equal entries are not always repeated.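 Tested at 5 concentrations; 48 h exposure; 96-well plates; endpoints linearly interpolated, else capped at highest concentration. Here, GI50 denotes the concentration required for 50% inhibition of growth. TGI denotes the concentration required for complete inhibition of growth.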

Columns and labels:
Assay in all cases: DTP human tumour cell line panel, 48 h
ACHN renal = tested on: ACHN renal
HOP-62 NSCLC = tested on: HOP-62 NSCLC
EKVX NSCLC = tested on: EKVX NSCLC
HCT-15 colon = tested on: HCT-15 colon
UACC-62 melanoma = tested on: UACC-62 melanoma
SF-295 CNS = tested on: SF-295 CNS
OVCAR-3 ovarian = tested on: OVCAR-3 ovarian
MCF7 breast = tested on: MCF7 breast

Row | Compound | GI50 (ACHN renal) [µM] | TGI (ACHN renal) | GI50 (HOP-62 NSCLC) [µM] | TGI (HOP-62 NSCLC) | GI50 (EKVX NSCLC) [µM] | TGI (EKVX NSCLC) | GI50 (HCT-15 colon) [µM] | TGI (HCT-15 colon) | GI50 (UACC-62 melanoma) [µM] | TGI (UACC-62 melanoma) | GI50 (SF-295 CNS) [µM] | TGI (SF-295 CNS) | GI50 (OVCAR-3 ovarian) [µM] | TGI (OVCAR-3 ovarian) | GI50 (MCF7 breast) [µM] | TGI (MCF7 breast)
1 | O=S(=O)(NC1=NCCN1C(=S)SN1CCn2c1nsc2=S)c1cccc(Cl)c1 | 13.8 | 30.6 µM | 18.5 | 37.6 µM | 38.7 | > 100 µM | 11.9 | 26.7 µM | 15.4 | 34.3 µM | 21.8 | 58.1 µM | 12.9 | 28.5 µM | 15.9 | 36.3 µM
2 | COC(=O)Nc1nc2ccc(Oc3ccc(NC(=O)Nc4cc(C(F)(F)F)ccc4F)cc3)cc2s1 | > 25 | > 25 µM | 16.7 | > 25 µM | > 14.7 | > 25 µM | 24.3 | > 25 µM | 3.9 | > 25 µM | 24.8 | > 25 µM | > 23.9 | > 25 µM | > 19.6 | > 25 µM
3 | O=C1c2cccc([N+](=O)[O-])c2C(=O)N1c1ncn[nH]1 |  | > 100 µM |  | > 100 µM |  | > 100 µM |  | > 100 µM |  | > 100 µM |  | > 100 µM |  | > 100 µM |  | > 100 µM
4 | CCCCCCCCn1ccc2cc(NC(=O)Cn3cc(CN4CCCC4)nn3)ccc21 | 1.69 | 3.07 µM | 1.75 | 3.49 µM | 1.82 | 4 µM | 1.84 | 3.79 µM | 1.7 | 3.16 µM | 1.87 | 3.72 µM | 2.13 | 4.9 µM | 1.71 | 3.34 µM
5 | C=C(C[C@](O)(C(=O)/C=C/c1ccc(Cl)cc1)C(=O)OC)c1ccccc1 | 2.17 | 5.2 µM | 2.72 | 9.03 µM | 4.16 | 16.9 µM | 1.45 | 3.52 µM | 2.03 | 4.58 µM | 7.96 | 20.7 µM | 1.56 | 3.08 µM | 0.456 | 4.38 µM
6 | Cc1ccc(C(=O)NC(C)C)cc1-c1ccc(C(=O)NCC2CC2)cc1 | > 25 | > 25 µM | > 25 | > 25 µM | > 25 | > 25 µM | > 25 | > 25 µM | > 25 | > 25 µM | > 25 | > 25 µM | > 25 | > 25 µM | > 25 | > 25 µM
7 | O=C(Nc1ccncc1)C(=O)c1cn(S(=O)(=O)c2cccc(F)c2)c2ccccc12 | 9.5 | > 100 µM | 3.58 | 61 µM | 4.17 | > 100 µM | 2.74 | > 100 µM | 2.96 | > 100 µM | 2.84 | 27.5 µM | 2.65 | 12.5 µM | 0.719 | > 100 µM
8 | Nc1nc2c(nnn2C2CC(O)C(CO)O2)c(=O)[nH]1 (centres undefined) | 1 | > 22.7 µM | 7.91 | > 93.9 µM | 93.5 | > 100 µM | 3.65 | > 100 µM | 3.48 | 36.2 µM | 2.54 | > 56.3 µM | 4.78 | > 69 µM | 4.21 | > 100 µM
9 | O=C1C(Cl)=C(NCCN2CCOCC2)C(=O)c2ncccc21 | 1.45 | 7.29 µM and 2.91 µM | 1.77 | 4.46 µM and 3.36 µM |  | 3.41 µM and 3.6 µM | 1.68 | 4.17 µM and 3.62 µM | 1.15 | 3.52 µM and 2.61 µM |  | 3.33 µM and 3.3 µM |  | 3.69 µM and 3.01 µM | 1.28 | 3.4 µM and 3.31 µM
10 | CC[C@@]1(c2ccccc2)C2=C(CC(C)(C)CC2=O)Nc2[nH]ncc21 | > 100 | > 100 µM | > 100 | > 100 µM | > 100 | > 100 µM | 89 | > 100 µM | > 100 | > 100 µM | > 100 | > 100 µM | > 100 | > 100 µM | > 100 | > 100 µM
11 | CCOCC(=O)N[C@H]1CCc2cc(OC)c(OC)c(OC)c2-c2ccc(OC)c(=O)cc21 |  | > 100 µM |  | > 100 µM |  | > 100 µM |  | 19.1 µM |  | > 100 µM |  | 0.379 µM |  | 0.0849 µM |  | > 100 µM
12 | O=C(O)CCNC1CCCCC1 | > 100 | > 100 µM | > 100 | > 100 µM | > 100 | > 100 µM | > 100 | > 100 µM | > 100 | > 100 µM | > 100 | > 100 µM | > 100 | > 100 µM | > 100 | > 100 µM
13 | COc1cc2ncn(-c3cc(OCc4cccs4)c(C(N)=O)s3)c2cc1OC | 6.39 | > 25 µM | 1.53 | > 25 µM | 7.93 | > 25 µM | 1.64 | > 25 µM | 1.33 | > 16.8 µM | 1.59 | > 25 µM | 0.828 | > 6.89 µM | 0.752 | > 12.5 µM
14 | O=C(O)C(=Cc1ccc(-c2ccccc2)cc1)C(=O)O |  | 60.1 µM |  | 22.5 µM |  | > 100 µM |  | > 61 µM |  | 26.1 µM |  | 53.3 µM |  | 17.5 µM |  | 33.5 µM
15 | CCN(CC)CCCC(C)Nc1c2ccc(Cl)cc2nc2ccc(O)cc12 (centres undefined) | 1.17 | 2.81 µM | 1.49 | 5.32 µM | 2.94 | 11.6 µM | 2.98 | 11 µM | 1.89 | 4.02 µM | 1.73 | 3.76 µM | 2.05 | 5.93 µM | 1.4 | 5.48 µM
16 | CC(C)(CO)N1CCN(C(=S)Nc2ccccc2)CC1 |  | > 100 µM |  | > 100 µM |  | > 100 µM |  | > 100 µM |  | > 100 µM |  | > 100 µM |  | > 100 µM |  | > 100 µM
17 | CC/C=C\C[C@@H](O)C/C=C1/C(=O)C=C[C@H]1C/C=C\CCCC(=O)OC | 1.97 | 4.02 µM | 3.31 | 9.8 µM | 9.14 | 21.1 µM | 2.49 | 7.47 µM | 2.8 | 8.6 µM | 2.97 | 9.27 µM | 3.1 | 10.3 µM | 2.23 | 13.1 µM
18 | Cc1cc2c(cc1Cl)SC1=NN(C)S(=O)N1S2(=O)=O (centres undefined) | > 100 | > 100 µM | > 100 | > 100 µM | > 100 | > 100 µM | > 100 | > 100 µM | 88.4 | > 100 µM | > 100 | > 100 µM | > 100 | > 100 µM | > 100 | > 100 µM
19 | Cc1ccc(-c2nc3nc(-c4ccccc4)nc(N4CCCNCC4)c3o2)cc1 | 1.73 | 3.12 µM | 1.81 | 3.36 µM | 1.75 | 3.29 µM | 1.58 | 3.23 µM | 1.68 | 3.14 µM | 1.77 | 3.33 µM | 1.84 | 3.32 µM | 1.48 | 3.5 µM
20 | CCCCCCCC(=O)OCC/C=C/C1OC1C1OC(=O)/C=C\C=C\c2nc(oc2C)/C=C(/C)CCC2OC2C1OC(=O)NC(C)=O (centres undefined) | 0.0103 | 0.933 µM | 0.0686 | 0.381 µM | 0.0419 | 1.64 µM | 0.0558 | 8.88 µM | 0.0316 | 0.0808 µM | 0.00904 | 0.0548 µM | 0.0537 | 0.142 µM | 0.0368 | 0.481 µM
21 | C[N+]1=C(/C=C/c2ccc(O)c3ncccc23)C(C)(C)c2ccccc21 | 1.98 | 7.03 µM | 3.44 | 14.5 µM | 2.01 | 7.16 µM | 0.893 | 15.1 µM | 2.47 | 8.54 µM | 2.21 | 5.24 µM | 2.1 | 5.46 µM | 2.71 | 10.7 µM
22 | O=C(O)c1nn(-c2ccccc2-c2n[nH]c(=O)[nH]c2=O)c(=O)[nH]c1=O |  | > 100 µM |  | > 100 µM |  | > 100 µM |  | > 100 µM |  | > 100 µM |  | > 100 µM |  | > 100 µM |  | > 100 µM
